Laboratory results as given in ChEMBL document CHEMBL4706557, “Synthesis and in vitro and in vivo biological evaluation of novel derivatives of flexicaulin A as antiproliferative agents” (Eur J Med Chem, 2020).
Activity calls are given as the source filed them. The calls are words filed in the database; no cut-off is given here.

Experiments:
GES1 [1] = test: Cytotoxicity against human GES1 cells assessed as reduction in survival rate after 24 to 72 hrs by SRB assay; assay type: cell-based; details: time 24-72 hrs
HUVEC = test: Cytotoxicity against HUVEC assessed as reduction in survival rate after 24 to 72 hrs by SRB assay; assay type: cell-based; details: human, time 24-72 hrs
GES1 [2] = test: Cytotoxicity against human GES1 cells assessed as inhibition of cell growth incubated for 72 hrs by SRB assay; assay type: cell-based; details: GES1, 72 h
ECa-109 = test: Inhibition of clone formation in human EC109 cells at 0.125 to 0.5 uM after 7 days by crystal violet staining based assay; assay type: functional, cell-based; details: dose 0.125-0.5 µM, time 7.0 day
ECa-109 cell line [3] = test: Induction of apoptosis in human EC-109 cells assessed as apoptotic rate at 0.75 uM after 48 hrs by Annexin V-FITC/propidium iodide staining based flow cytometry (reference value: 3.2 %); assay type: functional
ECa-109 cell line [4] = test: Induction of apoptosis in human EC-109 cells assessed as apoptotic rate at 3 uM after 48 hrs by Annexin V-FITC/propidium iodide staining based flow cytometry (reference value: 3.2 %); assay type: functional
ECa-109 cell line [5] = test: Induction of mitochondrial depolarization in human EC-109 cells assessed as depolarized cell population at 1.5 uM measured after 24 hrs by JC1 dye based flow cytometry (reference value: 4.2 %); assay type: functional
ECa-109 cell line [6] = test: Induction of apoptosis in human EC109 cells assessed as increase in cleaved caspase 3 expression after 24 hrs by Western blot analysis; assay type: functional, cell-based
ECa-109 cell line [7] = test: Induction of apoptosis in human EC109 cells assessed as increase in cleaved caspase 7 expression after 24 hrs by Western blot analysis; assay type: functional, cell-based
ECa-109 cell line [8] = test: Induction of apoptosis in human EC109 cells assessed as increase in cleaved PARP expression after 24 hrs by Western blot analysis; assay type: functional, cell-based
ECa-109 cell line [9] = test: Induction of apoptosis in human EC109 cells assessed as change in Bax expression at 0.75 to 3 uM after 24 hrs by Western blot analysis; assay type: functional, cell-based; details: dose 0.75-3 µM
ECa-109 cell line [10] = test: Induction of apoptosis in human EC109 cells assessed as increase in phosphorylated ASK1 expression incubated for 24 hrs by Western blot analysis; assay type: functional, cell-based
ECa-109 cell line [11] = test: Induction of apoptosis in human EC109 cells assessed as increase in phosphorylated MKK4 expression incubated for 24 hrs by Western blot analysis; assay type: functional, cell-based
ECa-109 cell line [12] = test: Induction of apoptosis in human EC109 cells assessed as increase in phosphorylated JNK expression incubated for 24 hrs by Western blot analysis; assay type: functional, cell-based
ECa-109 cell line [13] = test: Induction of morphological changes in human EC109 cells assessed as appearance of contracted and rounded cells; assay type: functional, cell-based
ECa-109 cell line [14] = test: Induction of morphological changes in human EC109 cells assessed as decrease in number of cells; assay type: functional, cell-based
ECa-109 cell line [15] = test: Induction of apoptosis in human EC-109 cells assessed as apoptotic rate at 3 uM preincubated with N-acetylcysteine for 4 hrs followed by compound addition and measured after 24 hrs by Annexin V-FITC/propidium iodide staining based flow cytometry (reference value: 5.7 %); assay type: functional
ECa-109 cell line [16] = test: Induction of apoptosis in human EC109 cells assessed as change in phosphorylated ASK1 expression at 3 uM incubated for 24 hrs in presence of N-acetylcysteine by Western blot analysis; assay type: functional, cell-based
ECa-109 cell line [17] = test: Induction of apoptosis in human EC109 cells assessed as change in phosphorylated MKK4 expression at 3 uM incubated for 24 hrs in presence of N-acetylcysteine by Western blot analysis; assay type: functional, cell-based
ECa-109 cell line [18] = test: Induction of apoptosis in human EC109 cells assessed as increase in cleaved caspase 9 expression at 3 uM incubated for 24 hrs in presence of N-acetylcysteine by Western blot analysis; assay type: functional, cell-based
ECa-109 cell line [19] = test: Induction of apoptosis in human EC-109 cells xenografted in nude BALB/c mouse assessed as appearance of morphological changes at 20 to 40 mg/kg, ip administered once daily for 14 days by H and E staining based histopathological analysis; assay type: functional, organism-based; details: dose 20-40 mg/kg, time 14.0 day
ECa-109 cell line [20] = test: Induction of apoptosis in human EC-109 cells xenografted in nude BALB/c mouse assessed as apparent cellular loosening at 20 to 40 mg/kg, ip administered once daily for 14 days by H and E staining based histopathological analysis; assay type: functional, organism-based; details: dose 20-40 mg/kg, time 14.0 day
ECa-109 cell line [21] = test: Induction of apoptosis in human EC-109 cells xenografted in BALB/c mouse assessed as change in Bax expression in tumor tissue at 40 mg/kg, ip QD for 14 days by Western blotting analysis relative to control; assay type: functional, organism-based; details: time 14.0 day
ECa-109 cell line [22] = test: Induction of apoptosis in human EC-109 cells xenografted in BALB/c mouse assessed as increase in Bax/Bcl-2 ratio in tumor tissue at 20 to 40 mg/kg, ip QD for 14 days by Western blotting analysis relative to control; assay type: functional, organism-based; details: dose 20-40 mg/kg, time 14.0 day
ECa-109 cell line [23] = test: Induction of apoptosis in human EC-109 cells xenografted in BALB/c mouse assessed as increase in phosphorylated ASK1 in tumor tissue at 20 to 40 mg/kg, ip QD for 14 days by Western blotting analysis; assay type: functional, organism-based; details: dose 20-40 mg/kg, time 14.0 day
ECa-109 cell line [24] = test: Induction of apoptosis in human EC-109 cells xenografted in BALB/c mouse assessed as increase in phosphorylated JNK in tumor tissue at 20 to 40 mg/kg, ip QD for 14 days by Western blotting analysis; assay type: functional, organism-based; details: dose 20-40 mg/kg, time 14.0 day
[25] = Toxicity in BALB/c mouse assessed as effect on WBC level at 40 mg/kg, ip administered once daily for 14 days (reference value: 4.42 +/- 0.79 10^9/L); assay type: organism-based; details: in vivo, 336 h, time 14 day
[26] = Toxicity in BALB/c mouse assessed as HGB at 20 mg/kg, ip administered once daily for 14 days (reference value: 153.20 +/- 3.87 g/L); assay type: organism-based; details: in vivo, 336 h, time 14 day
[27] = Toxicity in BALB/c mouse assessed as HGB at 40 mg/kg, ip administered once daily for 14 days (reference value: 153.20 +/- 3.87 g/L); assay type: organism-based; details: in vivo, 336 h, time 14 day
[28] = Toxicity in BALB/c mouse assessed as PLT at 20 mg/kg, ip administered once daily for 14 days (reference value: 788.60 +/- 71.35 10^9/L); assay type: organism-based; details: in vivo, 336 h, time 14 day
[29] = Toxicity in BALB/c mouse assessed as effect on creatinine content at 20 to 40 mg/kg, ip administered once daily for 14 days; assay type: organism-based; details: in vivo, 336 h, dose 20-40 mg/kg, time 14 day
[30] = Toxicity in BALB/c mouse assessed as effect on uric acid content at 20 to 40 mg/kg, ip administered once daily for 14 days; assay type: organism-based; details: in vivo, 336 h, dose 20-40 mg/kg, time 14 day
[31] = Toxicity in BALB/c mouse assessed as effect on red pulp and white pulp distribution in spleen at 20 to 40 mg/kg, ip administered once daily for 14 days by HE staining based assay; assay type: organism-based; details: in vivo, 336 h, dose 20-40 mg/kg, time 14 day
[32] = Toxicity in BALB/c mouse assessed as abnormalities in lungs at 20 to 40 mg/kg, ip administered once daily for 14 days by HE staining based assay; assay type: organism-based; details: in vivo, 336 h, dose 20-40 mg/kg, time 14 day
[33] = Toxicity in BALB/c mouse assessed as abnormalities in liver at 20 to 40 mg/kg, ip administered once daily for 14 days by HE staining based assay; assay type: organism-based; details: in vivo, 336 h, dose 20-40 mg/kg, time 14 day

Structure (SMILES): C=C1C(=O)[C@@]23[C@H](O)C[C@@H]4C(C)(C)CCC[C@@]4(COC(C)=O)[C@@H]2[C@@H](O)C[C@H]1[C@H]3OC(=O)c1ccc(CCl)cc1
- inhibition (INH) (GES1 [1]): Dose-dependent effect
- Activity (HUVEC): Dose-dependent effect
- IC50 (GES1 [2]): 520 nM
- inhibition (ECa-109): Active
- Activity (ECa-109 cell line [3]): 78.9%
- Activity (ECa-109 cell line [4]): 97%
- Activity (ECa-109 cell line [5]): 47.1%
- Activity (ECa-109 cell line [6]): Dose-dependent effect
- Activity (ECa-109 cell line [7]): Dose-dependent effect
- Activity (ECa-109 cell line [8]): Dose-dependent effect
- Activity (ECa-109 cell line [9]): inactive
- Activity (ECa-109 cell line [10]): Dose-dependent effect
- Activity (ECa-109 cell line [11]): Dose-dependent effect
- Activity (ECa-109 cell line [12]): Dose-dependent effect
- Activity (ECa-109 cell line [13]): Active
- Activity (ECa-109 cell line [14]): Active
- Activity (ECa-109 cell line [15]): 5.6%
- Activity (ECa-109 cell line [16]): inactive
- Activity (ECa-109 cell line [17]): inactive
- Activity (ECa-109 cell line [18]): inactive
- Activity (ECa-109 cell line [19]): Active
- Activity (ECa-109 cell line [20]): Active
- Activity (ECa-109 cell line [21]): Active
- Activity (ECa-109 cell line [22]): Active
- Activity (ECa-109 cell line [23]): Active
- Activity (ECa-109 cell line [24]): Active
- Activity [25]: 4.21 10^9/L
- Activity [26]: 147 g/L
- Activity [27]: 144.4 g/L
- Activity [28]: 754.8 10^9/L
- Activity [29]: Non-Toxic
- Activity [30]: Non-Toxic
- Activity [31]: Non-Toxic
- Activity [32]: Non-Toxic
- Activity [33]: Non-Toxic
